Results from EPA's ToxValDB 9.5 (doi:10.2903/j.efsa.2008.175r).
Values after ≈ are worked out from the molar mass of the structure shown.

Tests used:
Anas platyrhynchos = conditions: for LD50: oral, mortality
Oncorhynchus mykiss = conditions: acute; duration: 96 hours; mortality
Daphnia magna = conditions: chronic/long-term; duration: 21 days; reproduction
Plant = conditions: not reported; seedling emergence
Rattus norvegicus = conditions: for NOAEL: reproduction developmental, reproduction
Bibionidae = conditions: chronic/long-term
Folsomia candida = conditions: chronic/long-term; duration: 4 weeks
Canidae = conditions: oral, Dog Other, organ weight
Pimephales promelas = conditions: chronic/long-term; duration: 30 days
Typhlodromus pyri = experiment: LR50; higher = less toxic; conditions: not reported; mortality
Colinus virginianus = conditions: acute; oral; mortality
Coturnix coturnix = conditions: reproduction developmental

SMILES: CCCC(Cn1cncn1)c1ccc(Cl)cc1Cl (configuration not stated) [Penconazole]
- LD50 (Anas platyrhynchos; acute, unspecified): > 1590 mg/kg-day
- NOEL (Anas platyrhynchos; reproductive): 28.6 mg/kg-day
- LD50 (Anas platyrhynchos; short-term, feed): > 1840 mg/kg-day
- LC50 (Oncorhynchus mykiss): 1.13 µg/mL (≈ 3.98 µM)
- NOEC (Daphnia magna): 0.06 mg/L
- LD50 (Oryctolagus sp.; acute, oral, mortality): 971 mg/kg-day
- NOAEL (Oryctolagus sp.; developmental, development): 50 mg/kg-day
- LEL (Plant): 30 g/ha
- NOAEL (Rattus norvegicus): 20 mg/kg-day
- NOEC (Bibionidae): 25.2 mg/kg
- NOEC (Bibionidae; duration: 28 days): 0.8 mg/L
- NOEC (Folsomia candida): 98.8 mg/kg
- LC50 (Tagia sp.; acute, duration: 14 days, mortality): > 663 mg/kg
- NOEC (Tagia sp.; chronic/long-term, duration: 56 days): > 0.34 mg/kg
- NOAEL (Canidae; chronic, duration: 1 years): 3 mg/kg-day
- NOAEL (Canidae; subchronic, duration: 90 days): 3 mg/kg-day
- NOEC (Pimephales promelas): 0.32 mg/L
- LR50 (Typhlodromus pyri): 100 g/ha

SMILES: NC(Cc1ncn[nH]1)C(=O)O (configuration not stated) [1,2,4-Triazole-3-alanine]
- LD50 (Colinus virginianus): > 1340 mg/kg-day
- LD50 (Rattus norvegicus; acute, oral, mortality): > 5000 mg/kg-day
- NOAEL (Rattus norvegicus): 100 mg/kg-day

SMILES: c1nc[nH]n1 [1H-1,2,4-Triazole]
- NOEL (Coturnix coturnix): > 316 mg/kg-day
